# Data from patent publication US20050004218A1, “Vaccenic acid” (priority 2003, published 2005).
# Legend:
# [1] = system: mammary tumors; experiment: Bioassay of mammary cancer prevention (MNU-induced mammary carcinogenesis); type: in vivo, Female Sprague-Dawley rats; conditions: CLA 0.05-0.37% (treatments A-D); vaccenic acid 0.73-1.6% (treatments E-G)
# Experimental: (§1) Protocol of animal treatment. Female Sprague-Dawley rats were purchased from Charles River Breeding Laboratories (Raleigh, N.C.) at 45 days of age and all subsequent procedures were approved by Roswell Park Cancer Institute Animal Care and Use Committee. Rats were fed the AIN-76 basal diet for 1 week to acclimatize them to the powdered diet. All animals were injected with a single dose of methylnitrosourea (MNU: 50 mg/kg body weight) intraperitoneally at 52 days of age for the induction of mammary tumors. Immediately after MNU administration, a total of 210 rats were divided into 7 groups of 30 each and maintained on different dietary treatments for the following 24 weeks. Throughout this period, rats were palpated weekly to determine the appearance, size, and location of mammary tumors. The experiment was terminated at 24 weeks after MNU administration. All tumors were excised and fixed for histological examination and only confirmed carcinomas are reported in data summaries. Randomly-selected subsets of nine rats from each treatment were necropsied. The tumor-free inguinal mammary fat pad, a portion of the liver, and plasma were retrieved. […]
# (§2) Statistical analyses. Fatty acid composition data were analyzed statistically by the General Linear Model procedure of SAS (SAS Inc., Cary, N.C.). […]
# [2] = Fatty acid analysis of liver, plasma and mammary fat pad lipids (Example 1); type: in vivo, Female Sprague-Dawley rats
# Experimental: as §1, with “administration.” for “administration. All tumors were excised and fixed for histological examination and only confirmed carcinomas are reported in data summaries. Randomly-selected subsets of nine rats from each treatment were necropsied. The tumor-free inguinal mammary fat pad, a portion of the liver, and plasma were retrieved.”
# Fatty acid analysis. […] However, because these typically yielded far less lipid, quantities of all reagents for methylation were adjusted to compensate for the reduced yield.
# Fatty acid methyl esters were analyzed by gas chromatography (Hewlett Packard GC system 6890+with flame ionization detector) using a CP-Sil 88 capillary column (100 m×0.25 mm i.d. with 0.2 μm film thickness; Varian Inc.). […]
# as §2
SMILES,Effect of increasing dietary intake on tumor incidence (in words) [1],Tissue and plasma concentrations of vaccenic acid with increasing intake (in words) ([2]; FIG. 1),"Content of cis-9, trans-11 CLA within each tissue with increasing supply of vaccenic acid (in words) ([2]; liver, plasma, mammary fat pad, FIG. 3)"
"CCCCCC/C=C/CCCCCCCCCC(=O)O [vaccenic acid, trans-11 octadecenoic acid]",distinct inhibitory response to vaccenic acid which was dose-dependent,increased,linearly increased
"CCCCCC/C=C/C=C\CCCCCCCC(=O)O [cis-9, trans-11 CLA, cis-9, trans-11 octadecadienoic acid, reference compound]",the decrease was not statistically significant,,
